Assay results reported in the NIST ThermoML archive (doi:10.1016/j.jct.2006.04.005).

Assays:
[1] = 303.15 K, 101 kPa, Liquid; for viscosity: Capillary tube (Ostwald / Ubbelohde) method; for mass density: Pycnometric method
[2] = xn = mol fraction of the nth substance listed; conditions: 303.15 K, 101 kPa, Liquid; for viscosity: Capillary tube (Ostwald / Ubbelohde) method; for excess molar volume: Direct dilatometry; for mass density: Pycnometric method

Clc1ccc(Cl)c(Cl)c1 [1,2,4-trichlorobenzene]
[1]
Conditions | mass density [kg/m3] | speed of sound [m/s] | viscosity [mPa·s]
– | 1442.14 | 1260 | 1.613

Clc1ccccc1Cl [1,2-dichlorobenzene]
[1]
Conditions | mass density [kg/m3] | speed of sound [m/s] | viscosity [mPa·s]
– | 1299.24 | 1261 | 1.302

Clc1cccc(Cl)c1 [1,3-dichlorobenzene]
[1]
Conditions | mass density [kg/m3] | speed of sound [m/s] | viscosity [mPa·s]
– | 1277.12 | 1242 | 1.025

Cc1ccccc1Cl [2-chlorotoluene]
[1]
Conditions | mass density [kg/m3] | speed of sound [m/s] | viscosity [mPa·s]
– | 1072.81 | 1284 | 0.887

Cc1ccccc1[N+](=O)[O-] [2-nitrotoluene]
[1]
Conditions | mass density [kg/m3] | viscosity [mPa·s]
– | 1153.24 | 1.911

Cc1cccc(Cl)c1 [3-chlorotoluene]
[1]
Conditions | mass density [kg/m3] | speed of sound [m/s] | viscosity [mPa·s]
– | 1065.21 | 1280 | 0.78

Cc1cccc([N+](=O)[O-])c1 [3-nitrotoluene]
[1]
Conditions | mass density [kg/m3] | viscosity [mPa·s]
– | 1147.67 | 1.777

Cc1cccc([N+](=O)[O-])c1 [3-nitrotoluene] + C[S+](C)[O-]
[2]
Conditions | excess molar volume [m3/mol] | mass density [kg/m3] | speed of sound [m/s] | viscosity [mPa·s]
x2 = 0 | – | 1147.67 | – | 1.777
x2 = 0.1052 | 3.9e-08 | – | 2002 | 1.78
x2 = 0.1512 | 6e-08 | – | 1964 | 1.781
x2 = 0.1921 | 7.9e-08 | – | 1936 | 1.782
x2 = 0.2216 | 9.2e-08 | – | 1909 | 1.783
x2 = 0.272 | 1.14e-07 | – | 1876 | 1.784
x2 = 0.305 | 1.28e-07 | – | 1851 | 1.785
x2 = 0.3641 | 1.52e-07 | – | 1812 | 1.786
x2 = 0.4121 | 1.62e-07 | – | 1778 | 1.787
x2 = 0.4772 | 1.77e-07 | – | – | 1.789
x2 = 0.5226 | 1.83e-07 | – | 1711 | 1.79
x2 = 0.6035 | 1.75e-07 | – | 1661 | 1.792
x2 = 0.724 | 1.46e-07 | – | 1598 | 1.794
x2 = 0.8126 | 1.07e-07 | – | 1555 | 1.796
x2 = 0.8905 | 6.2e-08 | – | 1518 | 1.799
x2 = 0.9607 | 2.5e-08 | – | 1489 | 1.801

Cc1ccc(Cl)cc1 [4-chlorotoluene]
[1]
Conditions | mass density [kg/m3] | speed of sound [m/s] | viscosity [mPa·s]
– | 1060.54 | 1271 | 0.9

Cc1ccc(Cl)cc1 [4-chlorotoluene] + C[S+](C)[O-]
[2]
Conditions | excess molar volume [m3/mol] | mass density [kg/m3] | speed of sound [m/s] | viscosity [mPa·s]
x2 = 0 | – | 1060.54 | 1271 | 0.9
x2 = 0.0768 | 1.3e-08 | – | 1292 | 1.039
x2 = 0.1105 | 2.3e-08 | – | 1302 | 1.094
x2 = 0.1546 | 2.9e-08 | – | 1312 | 1.16
x2 = 0.2045 | 3.5e-08 | – | 1327 | 1.232
x2 = 0.2543 | 4.1e-08 | – | 1340 | 1.287
x2 = 0.3111 | 4.8e-08 | – | 1357 | 1.351
x2 = 0.3704 | 5.2e-08 | – | 1372 | 1.41
x2 = 0.4904 | 5.7e-08 | – | 1401 | 1.521
x2 = 0.5174 | 5.7e-08 | – | 1410 | 1.544
x2 = 0.554 | 5.6e-08 | – | 1418 | 1.573
x2 = 0.6014 | 5.3e-08 | – | 1430 | 1.611
x2 = 0.7074 | 4.5e-08 | – | 1453 | 1.687
x2 = 0.761 | 3.8e-08 | – | 1465 | 1.725
x2 = 0.8214 | 3.2e-08 | – | 1467 | 1.76
x2 = 0.8906 | 2e-08 | – | 1468 | 1.78

C[S+](C)[O-] [dimethyl sulfoxide]
[1]
Conditions | mass density [kg/m3] | speed of sound [m/s] | viscosity [mPa·s]
– | 1091.35 | 1470 | 1.803

C[S+](C)[O-] [dimethyl sulfoxide] + Cc1ccc(Cl)cc1
[2], x1 = 1
Conditions | mass density [kg/m3] | speed of sound [m/s] | viscosity [mPa·s]
– | 1091.35 | 1470 | 1.803

C[S+](C)[O-] [dimethyl sulfoxide] + Cc1cccc(Cl)c1
[2], x1 = 1
Conditions | mass density [kg/m3] | speed of sound [m/s] | viscosity [mPa·s]
– | 1091.35 | 1470 | 1.803

C[S+](C)[O-] [dimethyl sulfoxide] + Cc1cccc([N+](=O)[O-])c1
[2], x1 = 1
Conditions | mass density [kg/m3] | speed of sound [m/s]
– | 1091.35 | 1470

C[S+](C)[O-] [dimethyl sulfoxide] + Cc1ccccc1Cl
[2], x1 = 1
Conditions | mass density [kg/m3] | speed of sound [m/s]
– | 1091.35 | 1470

C[S+](C)[O-] [dimethyl sulfoxide] + Cc1ccccc1[N+](=O)[O-]
[2], x1 = 1
Conditions | mass density [kg/m3] | speed of sound [m/s] | viscosity [mPa·s]
– | 1091.35 | 1470 | 1.803

C[S+](C)[O-] [dimethyl sulfoxide] + Clc1ccc(Cl)c(Cl)c1
[2], x1 = 1
Conditions | mass density [kg/m3] | speed of sound [m/s]
– | 1091.35 | 1470

C[S+](C)[O-] [dimethyl sulfoxide] + Clc1cccc(Cl)c1
[2], x1 = 1
Conditions | mass density [kg/m3] | speed of sound [m/s]
– | 1091.35 | 1470

C[S+](C)[O-] [dimethyl sulfoxide] + Clc1ccccc1Cl
[2], x1 = 1
Conditions | mass density [kg/m3] | speed of sound [m/s] | viscosity [mPa·s]
– | 1091.35 | 1470 | 1.803
